Results published in US20240408086A1, “USE OF LUVADAXISTAT FOR THE TREATMENT OF COGNITIVE IMPAIRMENT” (TAKEDA PHARMACEUTICAL COMPANY LIMITED, priority 2021, published 2024).
Like-named read-outs stand apart in the source and are kept apart here.

Assays:
Mouse = assay: Eyeblink conditioning (ataxia and schizophrenia), 10-day QD; format: in vivo; design: key: a + sign means efficacious; a − sign means not efficacious; conditions: 10-Day Once Daily (QD)
From the text: In Table 1, a + sign means efficacious, a − sign means not efficacious, and an empty cell indicates a dose was not tested.

[1] = test system: adult patients with persistent negative symptoms of schizophrenia; format: in vivo, human; conditions: for PANSS NSFS, LS mean change from baseline to Week 12: placebo −3.1
From the text: Compound (I) was orally administered in the form of a tablet once daily for up to 14 weeks. Compound (I) placebo-matching tablets were similarly orally administered once daily for up to 14 weeks. The treatment group remained undisclosed to the participant and study doctor/site personnel during the study unless there was an urgent medical need.
The primary endpoint evaluated was the change in negative symptoms, measured as the 12-week change from baseline in the Positive and Negative Syndrome Scale-Negative Symptom Factor Score (PANSS NSFS).

[2] = test system: adult patients with persistent negative symptoms of schizophrenia; format: in vivo, human; conditions: 50 mg, 125 mg, 500 mg once daily
[3] = test system: patients with schizophrenia; assay: Phase 1b crossover study: eye-blink conditioning (EBC); format: in vivo, human
From the text: (§1) NCT03359785 was a randomized, double-blind, placebo-controlled cross-over Phase 1b clinical trial in schizophrenia patients at a single site to evaluate PD effects, safety, tolerability, and pharmacokinetics of multiple oral doses of Compound (I). The objective of the study was to assess pharmacodynamic (PD) biomarkers of Compound (I) on measures related to cerebellar circuitry function and NMDA pharmacology that are known to be affected in schizophrenia.
The primary endpoint was the average percentage of conditioned responses during the eye-blink conditioning (EBC) test at day 8 of each treatment period (FIG. 10). EBC was used to assess the impact of Compound (I) on cerebellar circuitry function. EBC is a highly conserved reflex that is dependent on cerebellar circuitry, with NMDA receptors playing a key role. EBC is impaired in patients with schizophrenia compared with healthy controls.
All endpoints were analyzed as change from baseline compared to placebo within the same subjects. Statistical comparisons were conducted with an ANOVA model, with treatment sequence, period, and treatment as fixed effects, and subject as a random effect. […]

[4] = test system: patients with schizophrenia; assay: Phase 1b crossover study: auditory steady state response (ASSR) gamma band power; format: in vivo, human
From the text: as §1
Evoked potentials in the electroencephalogram were also tested to assess the impact of multiple oral doses of Compound (I) on NMDA-sensitive physiological responses that are affected in schizophrenia. Specifically, mismatch negativity (MMN), auditory steady state response (ASSR), and P300 were measured at baseline and following 8 days of treatment in both periods.
ASSR are evoked oscillatory responses that are entrained to the frequency and phase of temporally modulated stimuli. Individuals with schizophrenia experience subjective sensory anomalies and objective deficits on assessment of sensory function. These deficits can be produced by abnormal signaling in the sensory pathways and sensory cortex or by later-stage disturbances in the cognitive processing of such inputs. ASSR can be used to assess the integrity of sensory pathways including cortical processing. ASSR was measured at midline central electrode (Cz) of EEG.
All endpoints were analyzed as change from baseline compared to placebo within the same subjects. Statistical comparisons were conducted with an ANOVA model, with treatment sequence, period, and treatment as fixed effects, and subject as a random effect. As a supplementary analysis, an analysis of covariance model (ANCOVA) was applied to the primary endpoint with (period) baseline as a covariate, treatment sequence, period, treatment effect and baseline-by-treatment as fixed effects, and subject as a random effect.

[5] = test system: patients with schizophrenia; assay: Phase 1b crossover study: safety and tolerability; format: in vivo, human; conditions: 50 or 500 mg for 8 consecutive days
From the text: as §1
Safety objectives included the incidence of treatment-emergent adverse events (TEAEs), laboratory tests, vital signs, and electrocardiogram (ECG) assessments.

[6] = test system: scopolamine-induced EBC deficits; conditions: preclinical studies; see Example 2 of WO 2015/132608; cited from earlier work
[7] = test system: adult patients with persistent negative symptoms of schizophrenia
Experimental: Additionally, eligible participants were receiving stable antipsychotic treatment at a 2-6 mg daily dose of risperidone equivalents, and were allowed to be treated with a second antipsychotic if it was used as a hypnotic at a subtherapeutic dose (subject to sponsor approval). […] To overcome potential confounding effects, those with depressive and extrapyramidal symptoms were excluded.
Dose selection for this study was based on target occupancy and elevation of D-serine.
The study comprised a 28-day screening period, a 14-day single-blinded placebo run-in period to prospectively evaluate drug adherence and BNSS score stability, and a 12-week double-blinded treatment period (FIG. 5). […] Demographics, baseline characteristics, and efficacy assessments were based on the full analysis set, which included randomized participants who received at least one dose of the study drug during the treatment period (Table 6). The safety analysis set included randomized participants who received at least one dose of the study drug.
Safety endpoints included assessment of treatment-emergent adverse events (TEAEs).

[8] = 50 mg once daily, count (%) of N = 58
[9] = 125 mg once daily, count (%) of N = 56
[10] = 500 mg once daily, count (%) of N = 55

**Q.** Which results are given for `O=c1[nH]nc(CCc2ccc(C(F)(F)F)cc2)cc1O` [Compound (I), luvadaxistat]?
**A.** Eyeblink conditioning (ataxia and schizophrenia) (Mouse; 0.1 mg/kg): +; Eyeblink conditioning (ataxia and schizophrenia) (Mouse; 1 mg/kg): +; PANSS NSFS, LS mean change from baseline to Week 12 ([1]; 50 mg once daily, p=0.426 vs placebo): −3.3; Improvement in PANSS NSFS versus placebo ([1]; 50 mg, 125 mg, or 500 mg at Week 12): no significant improvements; PANSS NSFS, LS mean change from baseline to Week 12 ([1]; 125 mg once daily, p=0.362 vs placebo): −3.4; PANSS NSFS, LS mean change from baseline to Week 12 ([1]; 500 mg once daily, p=0.808 vs placebo): −2.5; Negative symptoms as measured with the BNSS [2]: no significant improvements; EBC change from baseline, effect size vs placebo (ANCOVA) ([3]; 50 mg for 8 days, p=0.109): 0.246; EBC change from baseline, effect size vs placebo (ANCOVA) ([3]; 500 mg for 8 days, p=0.777): −0.198; ASSR gamma power, effect size vs placebo ([4]; 50 mg for 8 days): 0.575; ASSR gamma power, change from baseline ([4]; 50 mg for 8 days, placebo −16.282, p=0.056): 2.135; ASSR gamma power, effect size vs placebo ([4]; 500 mg for 8 days): 0.003; ASSR gamma power, change from baseline ([4]; 500 mg for 8 days, placebo 9.203, p=0.495): 9.411; Deaths, serious adverse events, TEAEs leading to discontinuation of study drug [5]: no deaths, serious adverse events (AEs), or TEAEs leading to discontinuation of study drug; Tolerability in the Phase 1b study [5]: generally well tolerated; Reversal of scopolamine-induced EBC deficits [6]: robust effects in reversing scopolamine-induced EBC deficits; Frequent TEAEs: Headache [7, 8]: 0; Frequent TEAEs: Increased weight [7, 8]: 2 (3.4); Frequent TEAEs: Insomnia [7, 8]: 0; Patients with Mild TEAEs [7, 8]: 10 (17.2); Patients with Moderate TEAEs [7, 8]: 2 (3.4); Patients with Severe TEAEs [7, 8]: 1 (1.7); Patients with any TEAEs [7, 8]: 13 (22.4); Serious adverse events [7, 8]: 0; TEAEs leading to study discontinuation [7, 8]: 0; TEAEs related to study drug [7, 8]: 0; Deaths ([7]; 50 mg once daily, count of N = 58): 0; Severe event of chronic cholecystitis, number of participants ([7]; 50 mg once daily, not considered drug related): 1; Severe schizophrenia (drug-related serious TEAE), number of participants ([7]; 125 mg once daily): one; Frequent TEAEs: Headache [7, 9]: 5 (8.9); Frequent TEAEs: Increased weight [7, 9]: 0; Frequent TEAEs: Insomnia [7, 9]: 2 (3.6); Patients with Mild TEAEs [7, 9]: 13 (23.2); Patients with Moderate TEAEs [7, 9]: 3 (5.4); Patients with Severe TEAEs [7, 9]: 1 (1.8); Patients with any TEAEs [7, 9]: 17 (30.4); Serious adverse events [7, 9]: 1 (1.8); TEAEs leading to study discontinuation [7, 9]: 1 (1.8); TEAEs related to study drug [7, 9]: 4 (7.1); Deaths ([7]; 125 mg once daily, count of N = 56): 0; Frequent TEAEs: Headache [7, 10]: 2 (3.6); Frequent TEAEs: Increased weight [7, 10]: 0; Frequent TEAEs: Insomnia [7, 10]: 2 (3.6); Patients with Mild TEAEs [7, 10]: 8 (14.5); Patients with Moderate TEAEs [7, 10]: 8 (14.5); Patients with Severe TEAEs [7, 10]: 0; Patients with any TEAEs [7, 10]: 16 (29.1); Serious adverse events [7, 10]: 0; TEAEs leading to study discontinuation [7, 10]: 1 (1.8); TEAEs related to study drug [7, 10]: 7 (12.7); Deaths ([7]; 500 mg once daily, count of N = 55): 0
